Literature values in patent US20030111427A1, “Composition for controlling the dissolving rate of solid sanitizers” (Arch Chemicals, Inc., priority 2001, published 2003).

Conditions: at 30° C.

Structure (SMILES): [Ca+2].[O-]Cl.[O-]Cl [calcium hypochlorite]
- time for all of the calcium hypochlorite to dissolve (21.6 grams in 100 grams of water): less than 5 minutes
- amount that dissolves in 100 grams of water (in 100 grams of water): about 21.6 grams
